Source: patent US20120237503A1, “Screening Method and Therapy with Agonists of DDAH I” (UCL BUSINESS PLC, priority 2009, published 2012)
Entries after “also recorded” stand apart in the source; their conditions may differ.

Columns and labels:
BDL rats = assay: Direct portal pressure measurement in bile duct ligated (BDL) rats; type: in vivo, rat
Source text: (§1) These experiments utilised an established animal model of cirrhosis, the bile duct ligated (BDL) rat. BDL rats may be generated by methods known in the art. For example, male Sprague-Dawley rats (200-250 g) may be used for this procedure. Following anaesthetisation, a mid-line laparotamy may be performed, the bile duct exposed, triply ligated with 4.0 silk suture, and severed between the second and third ligature. The wound is then closed in layers with absorbable suture, and the animal allowed to recover in a quiet room before being returned to the animal storage facility.
Three groups of rats were used in these experiments, BDL rats treated with vehicle, BDL rats treated with the anti-TNF monoclonal antibody infliximab, and sham treated rats.
Four weeks after BDL or sham surgery in Sprague-Dawley rats (n=14), BDL rats were gavaged with 5 mg/kg of the FXR agonist INT-747 (6-ethyl chenodeoxycholic acid, Intercept Pharmaceuticals Inc.) in vehicle (corn oil) for 5 days or with vehicle alone.
(§2) After 5 days of treatment rats underwent direct portal pressure assessment and were then sacrificed, and plasma and liver tissue collected for analysis. eNOS activity was determined radiometrically by the conversion of labelled radioactive arginine to citrulline. Protein expression for eNOS, iNOS, DDAH-1, and DDAH-2 were measured by standard Western Blotting techniques. Liver biopsies were evaluated for histopathology with H+E, Van Giesen and reticulin stains.
This method, termed ‘hydrodynamic gene therapy’, was used to determine the effect of transduction of DDAH-1 in BDL rats on portal pressure.
A plasmid containing human DDAH-1 cDNA was injected via a branch of the jugular vein into BDL or sham rodents produced as above. A control plasmid containing GFP was used as a control for the intervention in BDL animals. The animals underwent direct portal pressure measurement at 48 hours post intervention and plasma and tissue was collected for analysis of liver DDAH-1 mRNA (rtPCR) and protein expression (western blotting), as well as routine histology and biochemistry.

[1] = tested on: patients with acute alcoholic hepatitis; details: systemic infliximab in association with prednisolone; cited from earlier work
ADMA = assay: Liver tissue ADMA concentration in BDL rats; type: in vivo, rat; details: BDL rats + infliximab vs BDL vehicle
Source text: as §1
ADMA, SDMA and arginine were measured using fragmentation specific stable isotope dilution electrospray tandem mass spectrometry. In brief, samples de-proteinized with deuterated ADMA, SDMA and arginine, were chromatographed (acetonitrile:water, 1:1, with 0.025% formic acid) on a Teicoplanin guard column 10 mm×2.1 mm ID (Chirobiotic T, ASTEC Ltd, Congleton, UK), and analysed using a SCIEX API4000 (Applied Biosystems, Warrington, UK) in positive ion multiple reaction monitoring mode.

eNOS = assay: Hepatic eNOS activity (conversion of labelled arginine to 14C-citrulline) in BDL rats; type: in vivo, rat; details: BDL rats + infliximab vs BDL vehicle and sham
Method: FIG. 1 reports on the 14C-citrulline counts per minute per milligram of protein. This is a measure of eNOS activity. Experiments were carried out in bile-duct ligated (BDL) or sham treated rats. The bile duct ligated rats were treated with either infliximab (BDL+infliximab) or a vehicle (BDL).
as §1, §2

DDAH-I = assay: Hepatic DDAH-I protein expression in BDL rats; type: in vivo, rat; details: BDL rats + infliximab vs BDL vehicle and sham
Source text: as §1
Extracts containing equal amounts of protein were denatured and separated on 4-12% NuPAGE Bis-Tris Gels and blotted on to PVDF membranes (Invitrogen, UK). […] The bands were visualized using an enhanced ECL detection kit and quantified by densitometry. Loading accuracy was evaluated via membrane rehybridization with antibodies against mouse and rabbit anti-α tubulin (1:1000; upstate and Cell Signaling Technology, respectively).
as §2, with “Liver biopsies were evaluated for histopathology with H+E, Van Giesen and reticulin stains.” left out

Compound | reduction in portal pressure (BDL rats; BDL rats, INT-747 5 mg/kg gavage for 5 days, compared to BDL+vehicle, p<0.01) [%] | severe infections [1] | portal pressure (BDL rats; BDL cirrhotic rats after infliximab, BDL 14±0.7, sham 5.5±0.3 mmHg) [mmHg] | reduction in portal pressure (BDL rats; BDL rats + infliximab compared with BDL rats (vehicle / iso-volumetric saline)) | reduction in portal pressure (BDL rats; BDL rats + infliximab compared with BDL rats (vehicle / iso-volumetric saline), listed as Infliximab) | ADMA levels in liver tissue (ADMA) | eNOS activity (14C-citrulline counts per minute per milligram of protein) (eNOS) | DDAH-I expression in liver (DDAH-I) | DDAH-I expression in liver (DDAH-I; listed as Infliximab)
CC[C@H]1[C@@H](O)[C@@H]2[C@H](CC[C@]3(C)[C@@H]([C@H](C)CCC(=O)O)CC[C@@H]23)[C@@]2(C)CC[C@@H](O)C[C@@H]12 [INT-747, 6-ethyl chenodeoxycholic acid] | 30 | – | – | – | – | – | – | – | –
infliximab: anti-TNF monoclonal antibody infliximab | – | high level of severe infections | 9.5±0.6 | greater than 33% | more than 30% | substantially reduced; also recorded: reduction | restores eNOS activity towards similar levels to those seen in the sham animals; also recorded: Increased | restored towards sham levels; also recorded: significant increase | restored towards sham levels
